Assay results as given in patent US12071424B2, “IRE1 small molecule inhibitors” (Cornell University, priority 2017, dated 2024).

Columns and labels:
[1] = target: T1, IRE1a (Homo sapiens, UniProt O75460); assay: In vitro FRET assay (IRE1a cleavage of XBP1 RNA probe); format: biochemical; conditions: 2 nM SignalChem IRE1a, tested as Formic Acid Salt (37: HCl Salt)
T1 construct: purchased SignalChem
Protocol: In vitro FRET assay was performed to evaluate the ability of select compounds to inhibit IRE1, the results of which are summarized in Table 3. To perform the in vitro FRET assay, 1× complete assay buffer (CAB: […], 50 mM sodium citrate pH 7.15, 1 mM magnesium acetate, 0.02% tween 20) was used to SignalChem IRE1a protein to a final concentration of 2 nM. Selected compounds were serially diluted with DMSO in a non-binding black 384-well plate for a total of 15 ul in each well. 2 ul of the serially diluted compound or DMSO control were then added to new wells containing 98 ul of 1× CAB, for a total volume of 100 ul, 10 ul of which were then transferred to wells of a new plate. 5 ul of the diluted IRE1a was then added to each well. 5 ul of a […] XBP1 RNA probe was then added to each well. Fluorescence was then read over 30 minutes in kinetic mode (485/515 nm).
Two RNA probes were used, XBP1 wildtype (SEQ ID NO: 2) which is able to be spliced by active IRE1a or XBP1 mutant (SEQ ID NO: 3) which is unable to be spliced. Each probe contained a 5′ 6-FAM modification and a 3′ IOWA black FQ modification. […]

[2] = test system: IRE1a; assay: IRE1a Endoribonuclease Nanoluciferase Assay (XBP1 luciferase reporter in 293T cells); format: cell-based, human; conditions: Homo sapiens, HEK-293T, ER stressor, tested as Formic Acid Salt (37: HCl Salt)
Protocol: Compounds disclosed herein assessed for disruption of IRE1 signaling using a IRE1a Endoribonuclease Nanoluciferase Assay. Briefly, 25×10^5 293T cells were seeded in a 10 cm^2 tissue culture plate. About 24 hours later, the cells were transfected with Effectene. In a 15 mL tube, the following was added: 2 ug XBP1 luciferase reporter plasmid (PGK-Luc2-P2A-XBP1u-Nanoluciferase-Pest); 300 ul EC buffer; and 16 ul Enhancer, followed by incubation at room temp for 5 minutes. Next, 60 ul Effectene (Qiagen 301427) was added, followed by incubation at room temperature for 10 minutes. 2.6 mL cDMEM media was added. Old media was aspirated from the cells, followed by addition of 7 mL fresh media. Full transfection mixture was added dropwise to cells. Cells were incubated for 6 hours, followed by trypsinization, centrifugation and resuspension in 11 mL fresh cDMEM media. 100 uL of cells were plated per a well in a 96 well plate. A day later, ER stressors of choice +/−inhibitors were added. To harvest, media was aspirated from cells completely, then 50 uL 1× passive lysis buffer (Promega: E1941) was added per well and put on shaker (300 rpm) for 30 minutes at room temperature. Cells were centrifuged, and 15 uL sample per well was added to a new, opaque white 384 well plate (Corning 3570). 15 uL OneGlo (nanoluciferase kit, Promega N1630) was added. Plates were spun down, placed on shaker (300 rpm) for 10 minutes. Plates were read on luminometer, 1000 ms integration time per well. 15 uL Stop an Glo (nanoluciferase kit) was added. Plates were spun down, placed on shaker (300 rpm) for 10 minutes. Plates were read on luminometer, 1000 ms second integration time per well. Recordings are provided below in Table 4.

T1 sequence (O75460 19-977): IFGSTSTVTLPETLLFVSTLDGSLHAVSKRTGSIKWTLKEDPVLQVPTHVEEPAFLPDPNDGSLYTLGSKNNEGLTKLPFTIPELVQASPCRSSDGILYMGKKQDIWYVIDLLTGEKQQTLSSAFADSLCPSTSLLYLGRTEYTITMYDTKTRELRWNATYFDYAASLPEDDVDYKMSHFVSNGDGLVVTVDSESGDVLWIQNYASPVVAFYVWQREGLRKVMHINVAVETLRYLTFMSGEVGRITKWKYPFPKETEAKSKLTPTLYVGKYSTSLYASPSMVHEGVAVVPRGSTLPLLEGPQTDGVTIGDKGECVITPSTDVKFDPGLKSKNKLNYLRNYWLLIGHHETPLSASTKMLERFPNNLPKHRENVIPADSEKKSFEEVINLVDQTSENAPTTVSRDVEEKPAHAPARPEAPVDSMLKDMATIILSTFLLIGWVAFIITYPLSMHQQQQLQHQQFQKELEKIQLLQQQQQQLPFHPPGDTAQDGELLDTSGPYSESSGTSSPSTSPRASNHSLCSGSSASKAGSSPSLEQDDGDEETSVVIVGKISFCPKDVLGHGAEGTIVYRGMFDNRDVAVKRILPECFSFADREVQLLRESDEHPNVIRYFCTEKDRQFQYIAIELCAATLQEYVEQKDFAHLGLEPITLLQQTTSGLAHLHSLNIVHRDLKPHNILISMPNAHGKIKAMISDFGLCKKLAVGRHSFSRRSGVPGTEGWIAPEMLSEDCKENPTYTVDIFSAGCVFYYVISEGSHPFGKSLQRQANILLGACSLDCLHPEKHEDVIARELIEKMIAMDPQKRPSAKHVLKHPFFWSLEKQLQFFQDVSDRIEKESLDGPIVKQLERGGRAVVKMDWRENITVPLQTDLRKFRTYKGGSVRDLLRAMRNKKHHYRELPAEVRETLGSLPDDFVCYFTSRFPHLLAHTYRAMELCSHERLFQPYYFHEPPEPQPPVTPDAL

| Compound | IC50 [1] [nM] | EC50 [2] [nM] |
| --- | --- | --- |
| CCc1cc(-c2ccc(NS(=O)(=O)c3ccccc3Cl)nc2C)cc2cnc(NC3CCC(N(C)C)C[C@@H]3F)nc12 (stereo in doubt) [Compound 151, 2-chloro-N-(5-(2-(((1R,2S,4R)-4-(dimethylamino)-2-fluorocyclohexyl)amino)-8-ethylquinazolin-6-yl)-6-methylpyridin-2-yl)benzenesulfonamide] | ≤ 5 | ≤ 5 |
| CCc1cc(-c2ccc(NS(=O)(=O)c3ccccc3Cl)nc2C)cc2cnc(N[C@H]3CC[C@H](N(C)CCOC)CC3)nc12 [Compound 132, 2-chloro-N-(5-(8-ethyl-2-(((1r,4r)-4-((2-methoxyethyl)(methyl)amino)cyclohexyl)amino)quinazolin-6-yl)-6-methylpyridin-2-yl)benzenesulfonamide] | ≤ 5 | ≤ 5 |
| CCc1cc(-c2ccc(NS(=O)(=O)c3ccccc3Cl)nn2)cc2cnc(N[C@H]3CC[C@H](NC)CC3)nc12 [Compound 61, 2-chloro-N-(6-(8-ethyl-2-(((1r,4r)-4-(methylamino)cyclohexyl)amino)quinazolin-6-yl)pyridazin-3-yl)benzene-sulfonamide] | ≤ 5 | ≤ 5 |
| CCc1cc(-c2ccc(NS(=O)(=O)c3ccccc3Cl)nc2OC)cc2cnc(N[C@H]3CC[C@H](NC)CC3)nc12 [Compound 116, 2-chloro-N-(5-(8-ethyl-2-(((1r,4r)-4-(methylamino)cyclohexyl)amino)quinazolin-6-yl)-6-methoxypyridin-2-yl)benzenesulfonamide] | ≤ 5 | ≤ 5 |
| CCc1cc(-c2ccc(NS(=O)(=O)c3cccc(C)c3Cl)nc2C)cc2cnc(N[C@H]3CC[C@H](N(C)C)CC3)nc12 [Compound 160, 2-chloro-N-(5-(2-(((1r,4r)-4-(dimethylamino)cyclohexyl)amino)-8-ethylquinazolin-6-yl)-6-methylpyridin-2-yl)-3-methylbenzenesulfonamide] | ≤ 5 | ≤ 5 |
| CCc1cc(-c2ncc(NS(=O)(=O)c3ccccc3Cl)nc2OC)cc2cnc(N[C@H]3CC[C@H](N)CC3)nc12 [Compound 98, N-(5-(2-(((1r,4r)-4-aminocyclohexyl)amino)-8-ethylquinazolin-6-yl)-6-methoxypyrazin-2-yl)-2-chlorobenzenesulfonamide] | ≤ 5 | ≤ 5 |
| Cc1cc2nc(N[C@H]3CC[C@H](N)CC3)ncc2cc1-c1ccc(NS(=O)(=O)c2ccccc2Cl)c(F)c1 [Compound 90, N-(4-(2-(((1r,4r)-4-aminocyclohexyl)amino)-7-methylquinazolin-6-yl)-2-fluorophenyl)-2-chlorobenzene-sulfonamide] | ≤ 5 | 5 to 50 |
| NC12CCC(Nc3ncc4cc(-c5ccc(NS(=O)(=O)c6ccccc6Cl)c(F)c5)ccc4n3)(CC1)C2 [Compound 86] | ≤ 5 | 50 to 100 |
| Cc1nc(NS(=O)(=O)c2ccccc2Cl)ccc1-c1cc(C(C)(F)F)c2nc(N[C@H]3CC[C@H](N(C)C)CC3)ncc2c1 [Compound 131] | ≤ 5 | ≤ 5 |
| N[C@H]1CC[C@H](Nc2ncc3cc(-c4ncc(NS(=O)(=O)c5ccccc5Cl)cc4F)ccc3n2)CC1 [Compound 51, N-(6-(2-(((1r,4r)-4-aminocyclohexyl)amino)quinazolin-6-yl)-5-fluoropyridin-3-yl)-2-chlorobenzene-sulfonamide] | ≤ 5 | 50 to 100 |
| CCc1cc(-c2ccc(NS(=O)(=O)c3ccccc3Cl)c(F)c2)cc2cnc(N[C@H]3CC[C@H](NC)CC3)nc12 [Compound 60, 2-chloro-N-(4-(8-ethyl-2-(((1r,4r)-4-(methylamino)cyclohexyl)amino)quinazolin-6-yl)-2-fluorophenyl) benzene sulfonamide] | ≤ 5 | ≤ 5 |
| Cc1nc(NS(=O)(=O)c2ccccc2Cl)c(F)cc1-c1ccc2nc(N[C@H]3CC[C@H](N(C)C)CC3)ncc2c1 [Compound 153, 2-chloro-N-(5-(2-(((1r,4r)-4-(dimethylamino)cyclohexyl)amino)quinazolin-6-yl)-3-fluoro-6-methylpyridin-2-yl)benzenesulfonamide] | ≤ 5 | 5 to 50 |
| CCc1c(F)c(-c2cc(F)c(NS(=O)(=O)c3ccccc3Cl)nc2OC)cc2cnc(N[C@H]3CC[C@H](N(C)C)CC3)nc12 [Compound 163, 2-chloro-N-(5-(2-(((1r,4r)-4-(dimethylamino)cyclohexyl)amino)-8-ethyl-7-fluoroquinazolin-6-yl)-3-fluoro-6-methoxypyridin-2-yl)benzenesulfonamide] | ≤ 5 | ≤ 5 |
| N[C@H]1CC[C@H](Nc2ncc3cc(-c4ccc(NS(=O)(=O)c5ccccc5Cl)c(F)c4F)ccc3n2)CC1 [Compound 56, N-(4-(2-(((1r,4r)-4-aminocyclohexyl)amino)quinazolin-6-yl)-2,3-difluorophenyl)-chlorobenzene-sulfonamide] | ≤ 5 | ≤ 5 |
| COc1nc(NS(=O)(=O)c2ccccc2Cl)ccc1-c1cc(C)c2nc(N[C@H]3CC[C@H](N(C)C)CC3)ncc2c1 [Compound 133, 2-chloro-N-(5-(2-(((1r,4r)-4-(dimethylamino)cyclohexyl)amino)-8-methylquinazolin-6-yl)-6-methoxypyridin-2-yl)benzenesulfonamide] | ≤ 5 | ≤ 5 |
| COc1nc(NS(=O)(=O)c2ccccc2Cl)c(F)cc1-c1ccc2nc(N[C@H]3CC[C@H](N(C)C)CC3)ncc2c1 [Compound 149, 2-chloro-N-(5-(2-(((1r,4r)-4-(dimethylamino)cyclohexyl)amino)quinazolin-6-yl)-3-fluoro-6-methoxypyridin-2-yl)benzenesulfonamide] | ≤ 5 | 5 to 50 |
| COc1nc(NS(=O)(=O)c2ccccc2Cl)ccc1-c1cc2cnc(N[C@H]3CC[C@H](N(C)C)CC3)nc2cc1C [Compound 108, 2-chloro-N-(5-(2-(((1r,4r)-4-(dimethylamino)cyclohexyl)amino)-7-methylquinazolin-6-yl)-6-methoxypyridin-2-yl)benzenesulfonamide] | ≤ 5 | ≤ 5 |
| CCc1cc(-c2ccc(NS(=O)(=O)c3ccccc3Cl)c(F)c2)cc2cnc(N[C@@H]3CC[C@@H](N)C3)nc12 [Compound 78, N-(4-(2-(((1R,3R)-3-aminocyclopentyl)amino)-8-ethylquinazolin-6-yl)-2-fluorophenyl)-2-chlorobenzene-sulfonamide] | ≤ 5 | ≤ 5 |
| CCc1cc(-c2ccc(NS(=O)(=O)c3ccccc3Cl)nc2C)cc2cnc(N[C@H]3CC[C@H](NC)CC3)nc12 [Compound 122, 2-chloro-N-(5-(8-ethyl-2-(((1r,4r)-4-(methylamino)cyclohexyl)amino)quinazolin-6-yl)-6-methylpyridin-2-yl)benzenesulfonamide] | ≤ 5 | ≤ 5 |
| N[C@H]1CC[C@H](Nc2ncc3cc(-c4ccc(NS(=O)(=O)c5ccccc5Cl)cc4F)ccc3n2)CC1 [Compound 48, N-(4-(2-(((1r,4r)-4-amiocyclohexyl)amino)quinazolin-6-yl)-3-fluorophenyl)-2-chlorobenzene-sulfonamide] | ≤ 5 | 5 to 50 |
| N[C@H]1CC[C@H](Nc2ncc3cc(-c4nnc(NS(=O)(=O)c5ccccc5Cl)s4)ccc3n2)CC1 [Compound 89, N-(5-(2-(((1r,4r)-4-aminocyclohexyl)amino)quinazolin-6-yl)-1,3,4-thiadiazol-2-yl)-2-chlorobenzene-sulfonamide] | ≤ 5 | 100 to 10000 |
| Cc1nc(NS(=O)(=O)c2ccccc2Cl)ncc1-c1ccc2nc(N[C@H]3CC[C@H](N)CC3)ncc2c1 [Compound 68, N-(5-(2-(((1r,4r)-4-aminocyclohexyl)amino)quinazolin-6-yl)-4-methylpyrimidin-2-yl)-2-chlorobenzene-sulfonamide] | ≤ 5 | 50 to 100 |
| CCc1cc(-c2ccc(NS(=O)(=O)c3ccccc3Cl)c(F)c2)cc2cnc(N[C@H]3CCCNC3)nc12 [Compound 73, (S)-2-chloro-N-(4-(8-ethyl-2-(piperidin-3-ylamino)quinazolin-6-yl)-2-fluoropbenyl) benzenesulfon-amide] | – | ≤ 5 |
